Reference: patent publication US4352802A, “Bicyclo[3.3.1]nonyl-benzamide” (Beecham Group Limited, priority 1980, dated 1982)

Legend:
Type in all cases: in vivo
Dopamine Receptor [1] = test: Inhibition of apomorphine induced climbing in the mouse (dopamine receptor blocking activity in the central nervous system); details: p.o., apomorphine 1 mg/kg s.c., not necessarily the lowest active dose
Protocol: II. Dopamine Receptor Blocking Activity in the Central Nervous System
Compounds were tested for inhibition of apomorphine induced climbing in the mouse. The test is based on that described by Protais, P., Constantin, J. and Schwartz J. C. (1976), Psychopharmacology, 50, 1-6.
Apomorphine 1 mg/kg s.c. induces mice to climb the wall of a wire cage (inverted food hopper-11×7.5×18 cm high). Mice acclimatised in their home cages in groups of 5 are placed under the hoppers immediately after the injection of apomorphine 1 mg/kg s.c. At 10,20 and 30 minutes after injection climbing behaviour is scored. The mice are observed for 30 seconds and scored according to the position they spend the majority of time in, score 0--four paws on floor of cage; score 1--[…]; score 2--all paws on wall of cage. The scores at all 3 times and for each mouse are summed and mice drug treated orally compared to mice receiving apomorphine only. A saline only treated group is also included and any score, generally <5% of maximum taken into account.

[2] = tested on: vomiting response to apomorphine HCl; test: Anti-emetic activity in the dog (apomorphine-induced vomiting); details: Canis lupus familiaris, sc, 30 minutes prior to apomorphine HCl 0.1 mg/kg s.c.
Protocol: I. Anti-emetic activity in the dog
Compounds were administered subcutaneously 30 minutes prior to administration of a standard dose of apomorphine HCl (0.1 mg/kg subcutaneously) and the vomiting response compared to that obtained when the same animals were dosed with apomorphine HCl and vehicle only.

[3] = tested on: inhibitory effect of 6,7-ADTN on gastric motility; test: Gastric motility testing in the rat (reversal of 6,7-ADTN inhibition); details: conscious chronic gastric fistula rat, 1 mg/kg s.c., 10 minutes after 6,7-ADTN 1 mg/kg s.c.
Protocol: III. Gastric Motility Testing in the rat
The compounds were tested for ability to reverse the inhibitory effect of 6,7-ADTN on gastric motility as recorded by an open tipped catheter in the conscious chronic gastric fistula rat. Administration of 1 mg/kg s.c. of 6,7-ADTN reduced basal gastric motor activity and this was reversed by the administration of the compound administered 10 minutes after the 6,7-ADTN. […] For subcutaneous testing the compound was dissolved in water by the addition of tartaric acid (1/2 mole per mole of compound).

Dopamine Receptor [4] = test: Inhibition of apomorphine induced climbing in the mouse (dopamine receptor blocking activity in the central nervous system); details: s.c., apomorphine 1 mg/kg s.c., not necessarily the lowest active dose

| SMILES | Active Dose (inhibition of apomorphine induced climbing) (Dopamine Receptor [1]) [mg/kg] | also measured |
| --- | --- | --- |
| COc1cc(N)c(Cl)cc1C(=O)N[C@@H]1C[C@H]2COC[C@@H](C1)N2CCC(C)C [Compound 25, 2-Methoxy-5-chloro-4-amino-[N-(9-(3-methylbutyl)-9-aza-3-oxabicyclo(3,3,1)nonan-7β-yl)]benzamide] | 10 | – |
| COc1ccc(S(C)(=O)=O)cc1C(=O)N[C@@H]1C[C@H]2CSC[C@@H](C1)N2Cc1ccccc1 [Compound 5, 2-Methoxy-5-methylsulphonyl-N-[9-benzyl-9-aza-3-thiabicyclo (3,3,1)nonan-7β-yl]benzamide] | – | ED50 [2]: 0.1 mg/kg; Reversal of the action of 6,7-ADTN on gastric motility [3]: reversed the action of 6,7-ADTN; Active Dose (inhibition of apomorphine induced climbing) (Dopamine Receptor [4]): 50 mg/kg |
| COc1cc(N)c(Cl)cc1C(=O)N[C@@H]1C[C@H]2COC[C@@H](C1)N2Cc1ccccc1 [Compound 2, 2-Methoxy-5-chloro-4-amino-N-[9-benzyl-9-aza-3-oxabicyclo(3,3,1)nonan-7β-yl]-benzamide] | 1 | ED50 [2]: 0.005 mg/kg; Reversal of the action of 6,7-ADTN on gastric motility [3]: reversed the action of 6,7-ADTN |
| COc1cccc(C(=O)N[C@@H]2C[C@H]3COC[C@@H](C2)N3Cc2ccccc2)c1OC [Compound 6, 2,3-Dimethoxyj-[N-(9-benzyl-9-aza-3-oxabicyclo(3,3,1)nonan-7β-yl)]benzamide] | 2 | – |
| COc1cc(N)c(Cl)cc1C(=O)N[C@@H]1C[C@H]2COC[C@@H](C1)N2Cc1ccc(Cl)cc1 [Compound 18, 2-Methoxy-5-chloro-4-amino-[N-(9-(4-chlorobenzyl)-9-aza-3-oxabicyclo(3,3,1)nonan-7β-yl)]benzamide] | 10 | – |
| CCCCCCN1[C@@H]2COC[C@H]1C[C@H](NC(=O)c1cc(Cl)c(N)cc1OC)C2 [Compound 23, 2-Methoxy-5-chloro-4-amino[N-(9-(n-hexyl)-9-aza-3-oxabicyclo(3,3,1)nonan-7β-yl)]benzamide] | 10 | – |
| COc1cc(NC(C)=O)c(Cl)cc1C(=O)N[C@@H]1C[C@H]2COC[C@@H](C1)N2Cc1ccccc1 [Compound 1, 2-Methoxy-5-chloro-4-acetamido-N-[9-benzyl-9-aza-3-oxabicyclo(3,3,1)nonan-7β-yl]-benzamide] | 2 | – |
| COc1cc(N)c(Cl)cc1C(=O)N[C@@H]1C[C@H]2COC[C@@H](C1)N2Cc1ccc(Cl)c(Cl)c1 [Compound 20, 2-Methoxy-5-chloro-4-amino-[N-(9-(3,4-dichlorobenzyl)-9-aza-3-oxabicyclo(3,3,1)nonan-7β-yl)]benzamide] | 10 | – |
| COc1cc(N)c(Cl)cc1C(=O)N[C@@H]1C[C@H]2COC[C@@H](C1)N2CC1CCCCC1 [Compound 26] | 10 | – |
| COc1ccc(CN2[C@@H]3COC[C@H]2C[C@H](NC(=O)c2cc(Cl)c(N)cc2OC)C3)cc1 [Compound 19, 2-Methoxy-5-chloro-4-amino-[N-(9-(4-methoxybenzyl)9-aza-3-oxabicyclo(3,3,1)nonan-7β-yl)]benzamide] | 10 | – |
| COc1cc(N)c(Cl)cc1C(=O)N[C@@H]1C[C@H]2COC[C@@H](C1)N2Cc1cccs1 [Compound 24, 2-Methoxy-5-chloro-4-amino-[N-(9-(2-thenyl)-9-aza-3-oxabicyclo(3,3,1)nonan-7β-yl)]benzamide] | 10 | – |
| COc1cc(N)c(Cl)cc1C(=O)N[C@@H]1C[C@H]2COC[C@@H](C1)N2Cc1cccc(C(F)(F)F)c1 [Compound 21, 2-Methoxy-5-chloro-4-amino-[N-(9-(3-trifluoromethylbenzyl)-9-aza-3-oxabicyclo(3,3,1)nonan-7β-yl)]benzamide] | 50 | – |
| COc1cc(N)c(Cl)cc1C(=O)N[C@@H]1C[C@H]2COC[C@@H](C1)N2Cc1ccc(C)cc1 [Compound 22, 2-Methoxy-5-chloro-4-amino-[N-(9-(4-methylbenzyl)-9-aza-3-oxabicyclo(3,3,1)nonan-7β-yl)]benzamide] | 10 | – |
